For data set [1] the following is noted: Journal of Cerebral Blood Flow and Metabolism, 1994, 14, 251-261; cited from earlier work.
Data set [2] is described as follows: Nephrotoxicity of prior-art compounds of EP 0 640 612 found by the Applicant. As to conditions: no method given. Format: in vivo.

Drawing on patent US6596709B1, “6-sulphanoyl-3-quinolylphosphonic acid compounds” (Les Laboratoires Servier, priority 2000, dated 2003), this text covers Nephrotoxicity for two compounds.

Where two headings read alike, the source gives them in different places.

Take `NS(=O)(=O)c1cccc2c3c(cc([N+](=O)[O-])c12)=NC(=O)C(=O)N=3` [NBQX, 6-nitro-7-sulphamoyl-benzo[f]quinoxaline-2,3-dione]: the Nephrotoxicity entry in data set [1] is on record as “nephrotoxicity”.

On to `O=c1[nH]c2cc(Cl)c(Cl)cc2cc1P(=O)(O)O` [(6,7-dichloro-2-oxo-1,2-dihydro-3-quinolyl)phosphonic acid], for which, in data set [2], the Nephrotoxicity result was “serious problems of nephrotoxicity”.
